Assay results reported in article PMC7508583, “Discovery and Preclinical Development of Antigiardiasis Fumagillol Derivatives” (Antimicrobial Agents and Chemotherapy, 2020).
Values after ≈ are worked out from the molar mass of the structure shown.

Experiments:
[1] = test system: G. lamblia GS trophozoites; test: Trophozoite viability MLC determination; format: cell-based, Giardia lamblia
Procedure: The inhibition of metabolism enables the organism to resume proliferation once treatment is completed. To discriminate between the lethality of the promising compounds and the induction of metabolic inactivity by the promising compounds, the minimum lethal concentration (MLC) values were determined by treating the trophozoites with the test compounds for 3 days and transferring the resulting cultures to medium lacking the compounds for 3 days of proliferation. This assay was described previously for G. lamblia ([18]) and was adapted to E. histolytica in the current study.
Trophozoites of G. lamblia isolates WB and GS were grown anaerobically in borosilicate glass screw-cap culture tubes (Fisher Scientific) at pH 7.0 in Keister’s modified TYI-S-33 medium (ATCC). The medium was supplemented with 10% heat-inactivated bovine serum (Sigma-Aldrich) and 0.05% bovine bile (Sigma-Aldrich). To attain low-oxygen-tension conditions, the tubes were filled to 85% to 90% of their total volume capacity and incubated without shaking at 37°C. Subcultures (2 × 10^5 trophozoites per tube) were made three times a week. Detachment of trophozoites for inoculation was achieved by chilling the cultures on ice for 20 min. Culturing and detachment of metronidazole-resistant G. lamblia assemblage A 713M3 and assemblage B 1279-M1 trophozoites followed the same protocol, except that the growth medium was supplemented with metronidazole, with the concentration gradually being increased to 10 μM.
Compounds were prepared by 2-fold serial dilutions in growth medium containing 0.5% DMSO (diluted from a starting concentration of 1 μM to 12 concentrations for all compounds except metronidazole, fumagillol, and TNP-470, which were diluted from 100 μM), and 100 μl/well was transferred in duplicate to the 96-well culture plate. Ten microliters of G. lamblia trophozoites was plated at a density of 10,000 cells/well. The plates were incubated under anaerobic condition in a BD GasPak EZ container system (BD Diagnostics) at 37°C for 72 h and surveyed visually under a microscope to check trophozoite survival, mobility, and attachment. […] The tubes were incubated under anaerobic condition for 3 days at 37°C and checked under a microscope. The MLC value was the concentration in the tube with the lowest compound concentration without any live organism.

[2] = test system: G. lamblia WB trophozoites; design: method as in PMID 25267663; details: proliferation assay; cited from earlier work
[3] = Accelerated temperature/humidity degradation test; format: physicochemical; details: day 28, 37°C; for Mean ± SE degradation at 4 wk and 37°C, 75% humidity: 75% relative humidity; for Mean ± SE degradation at 4 wk and 37°C, uncontrolled humidity: uncontrolled relative humidity
Procedure: Accelerated temperature tests were performed at 37°C and under 75% relative humidity or laboratory uncontrolled relative humidity, comparing compounds 3 and 9 to fumagillin. Sanofi reported previously that fumagillin degraded from 98% to 85% purity when stored at 40°C for 2 weeks at ambient humidity ([42]).
For accelerated temperature degradation tests at 75% relative humidity and at laboratory uncontrolled relative humidity, fumagillin and compounds 3 and 9 were incubated at 37°C under either controlled or uncontrolled humidity, and the samples were analyzed by HPLC every week for 4 weeks. Measurements were made in duplicate. Area-under-the-curve values were calculated to derive the percentage of compound remaining. For pH degradation, the compounds were dissolved in DMSO and mixed with pH 3.0 buffer. The samples were incubated at 25°C for up to 48 h. Samples were analyzed by HPLC every 2 h for the first 8 h and then after 24 and 48 h.

[4] = test system: G. lamblia WB trophozoites; design: method as in PMID 21078930, PMID 25267663; details: read-out: IC50 against assemblage A WB strain; cited from earlier work

Structure (SMILES): COC1C(OC(=O)NC(=O)CN2CCOCC2)CCC2(CO2)C1C1(C)OC1CC=C(C)C (stereo not shown) [Compound 3]
- fold improved MLCs compared with the MLC of fumagillin [1]: ~100 fold

Structure (SMILES): CO[C@@H]1[C@H](OC(=O)/C=C/C=C/C=C/C=C/C(=O)O)CC[C@]2(CO2)[C@H]1[C@@]1(C)O[C@@H]1CC=C(C)C [Fumagillin, reference compound]
- MLC, WB strain [2]: 0.7 µM (≈ 0.321 µg/mL)
- Mean ± SE degradation at 4 wk and 37°C, 75% humidity [3]: 30.37 ± 1.12%
- Mean ± SE degradation at 4 wk and 37°C, 75% humidity ([3]; listed as fumagillin): 30.37%
- Mean ± SE degradation at 4 wk and 37°C, uncontrolled humidity [3]: 20.22 ± 3.90%
- Mean ± SE degradation at 4 wk and 37°C, uncontrolled humidity ([3]; listed as fumagillin): 20.22%
- IC50 [4]: 10 nM
